GI50 and TGI data for 8 molecules are collected here from PubChem BioAssay (NCI).

Values joined by “and” are separate entries in the source; they are usually repeats but may differ in a detail not shown here. Equal values may be shown once.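 Exposure lasted 48 hours, with cells grown in 96-well plates and compounds tested at five concentrations. GI50 is the concentration that inhibits growth by half. At the TGI there is no net growth.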 Where only a bound is given, the exact number is not on record here.

Some test systems named below: OVCAR-8 ovarian; HOP-62 NSCLC; LOX IMVI melanoma; HCT-116 colon; EKVX NSCLC; TK-10 renal; NCI-H226 lung; U251 CNS.
What all share (experiment): NCI-60 cell line screen, 48 h

Turning to `COc1ccc(Br)cc1NC(=O)Nc1cccc2c1ccn2Cc1ccnc(N)c1`, the GI50 is 5.94 µM and > 10 µM in the experiment with OVCAR-8 ovarian; 4.86 µM and > 10 µM with HOP-62 NSCLC; 1830 nM and 2180 nM in the experiment on LOX IMVI melanoma; 5.85 µM and 5.75 µM in the experiment on HCT-116 colon; 7.36 µM and 9.64 µM in the experiment with EKVX NSCLC; 5.33 µM and 7.07 µM with TK-10 renal. The GI50 with NCI-H226 lung is 6.45 µM and 8.39 µM; in the experiment with U251 CNS, 4.55 µM and 5.4 µM. Besides, the TGI with OVCAR-8 ovarian was 23.3 µM and > 10 µM; with HOP-62 NSCLC it was 11.1 µM and > 10 µM; in the experiment with LOX IMVI melanoma, 3.66 µM and 5.14 µM; with HCT-116 colon it was 19.5 µM and > 10 µM; in the experiment on EKVX NSCLC, > 100 µM; in the experiment on TK-10 renal it was 16.6 µM and > 10 µM. In addition, the TGI with NCI-H226 lung is 48.4 µM and > 10 µM; with U251 CNS it was 15.6 µM and > 10 µM.
In the case of `Cc1ccc2c(C(C[N+](=O)[O-])c3ccccc3)c(-c3ccccc3)[nH]c2c1` (configuration not stated), the GI50 with OVCAR-8 ovarian was 33 µM; in the experiment on HOP-62 NSCLC, 34.2 µM; with LOX IMVI melanoma, 38200 nM; with HCT-116 colon, 30.2 µM; with EKVX NSCLC, 75.9 µM; with TK-10 renal it was > 95 µM. For the same molecule, the GI50 in the experiment with NCI-H226 lung is 62.4 µM; in the experiment on U251 CNS, 32 µM. Also, the TGI in the experiment with OVCAR-8 ovarian, in the experiment with HOP-62 NSCLC, in the experiment on LOX IMVI melanoma, in the experiment on HCT-116 colon, in the experiment on EKVX NSCLC and in the experiment on TK-10 renal was > 95 µM each time. Moreover, the TGI in the experiment with NCI-H226 lung and in the experiment on U251 CNS was > 95 µM in each case.
For the molecule `CN(C)c1ccc(/C=N/NC(N)=S)nc1`, the GI50 was 3.24 µM in the experiment on OVCAR-8 ovarian; 3.11 µM in the experiment with HOP-62 NSCLC; 2710 nM in the experiment with LOX IMVI melanoma; 3.3 µM in the experiment with HCT-116 colon; 3.09 µM in the experiment on EKVX NSCLC; 7.61 µM in the experiment with TK-10 renal. For the same molecule, the GI50 was 3.54 µM in the experiment on NCI-H226 lung and 3.99 µM in the experiment on U251 CNS. Further, the TGI in the experiment on OVCAR-8 ovarian, in the experiment with HOP-62 NSCLC, with LOX IMVI melanoma, in the experiment on HCT-116 colon, in the experiment with EKVX NSCLC and with TK-10 renal was > 100 µM throughout. Also, the TGI is 52.7 µM in the experiment with NCI-H226 lung and > 100 µM in the experiment on U251 CNS.
As to `COc1nc(N)nc2c1ncn2C1CC(O)C(CO)O1` (configuration not stated), the TGI with OVCAR-8 ovarian, in the experiment on HOP-62 NSCLC, with LOX IMVI melanoma, with HCT-116 colon, in the experiment on EKVX NSCLC and with TK-10 renal was > 100 µM in each case. The TGI in the experiment with NCI-H226 lung and with U251 CNS was > 100 µM in each case.
With `Cc1cc(OCc2nnc3n2S(=O)(=O)c2ccccc2N3C)ccc1Cl`, the TGI in the experiment with OVCAR-8 ovarian is > 100 µM; in the experiment with HOP-62 NSCLC it was 29.7 µM; in the experiment with LOX IMVI melanoma, > 100 µM; with HCT-116 colon it was > 100 µM; in the experiment on EKVX NSCLC it was > 100 µM; in the experiment with TK-10 renal it was > 100 µM. In addition, the TGI with NCI-H226 lung is > 100 µM; with U251 CNS, 43.6 µM.
On to `CCOC(=O)C(=Cc1ccc(C#N)cc1)C(=O)OCC`, for which the GI50 in the experiment on OVCAR-8 ovarian was 3.54 µM; in the experiment on HOP-62 NSCLC, 2.73 µM; with LOX IMVI melanoma it was 1800 nM; in the experiment with HCT-116 colon, 2.15 µM; in the experiment with EKVX NSCLC, 4.83 µM; in the experiment with TK-10 renal, 2.28 µM. Moreover, the GI50 in the experiment on NCI-H226 lung is 2.51 µM; with U251 CNS, 2.15 µM. Moreover, the TGI with OVCAR-8 ovarian came to 11.4 µM; with HOP-62 NSCLC it was 9.81 µM; in the experiment with LOX IMVI melanoma, 3.87 µM; with HCT-116 colon, 4.22 µM; with EKVX NSCLC, 17.6 µM; in the experiment on TK-10 renal, 7.3 µM. Moreover, the TGI came to 6.33 µM in the experiment on NCI-H226 lung and 4.89 µM in the experiment with U251 CNS.
As to `Cn1ncc(Cl)c1-c1cc(C(=O)N[C@H](CN)Cc2cccc(F)c2)sc1Cl`, the GI50 is 3.82 µM and 8.34 µM in the experiment with OVCAR-8 ovarian; 1.11 µM and 3.13 µM with HOP-62 NSCLC; 1080 nM and 2850 nM with LOX IMVI melanoma; 1.27 µM and 2.84 µM with HCT-116 colon; 3.24 µM in the experiment with EKVX NSCLC; 0.531 µM and 1.73 µM with TK-10 renal. The GI50 with NCI-H226 lung is > 4.48 µM and 11.6 µM; in the experiment with U251 CNS, 0.346 µM and 0.742 µM. Besides, the TGI was > 7.9 µM and 23.8 µM with OVCAR-8 ovarian; > 10 µM and 16.6 µM with HOP-62 NSCLC; 2.91 µM and 11.3 µM in the experiment on LOX IMVI melanoma; > 5.17 µM and 13.6 µM in the experiment on HCT-116 colon; > 10 µM in the experiment on EKVX NSCLC; 5.76 µM and 14.3 µM with TK-10 renal. For the same molecule, the TGI is > 10 µM and 32.2 µM in the experiment on NCI-H226 lung; > 4.58 µM and 12.8 µM in the experiment on U251 CNS.
With `COc1cc2nc(Nc3cccc(Cl)c3)nc(N)c2cc1OC`, the GI50 with OVCAR-8 ovarian was 6.29 µM; in the experiment on HOP-62 NSCLC, 5.81 µM; in the experiment on LOX IMVI melanoma, 2450 nM; in the experiment with HCT-116 colon, 2.34 µM; in the experiment on EKVX NSCLC it was 12.9 µM; in the experiment with TK-10 renal, 14.2 µM. The GI50 in the experiment on NCI-H226 lung is 16 µM; with U251 CNS, 3.08 µM. In addition, the TGI was 22.6 µM with OVCAR-8 ovarian; 18.3 µM in the experiment with HOP-62 NSCLC; 6.14 µM in the experiment on LOX IMVI melanoma; 6.35 µM with HCT-116 colon; 27 µM in the experiment with EKVX NSCLC; 37.8 µM in the experiment with TK-10 renal. Also, the TGI in the experiment on NCI-H226 lung came to 29.5 µM; in the experiment on U251 CNS, 9.96 µM.
